Data: US7482308B2, “Difluoromethanesulfonyl anilide derivatives useful as herbicides” (Bayer CropScience AG, priority 2004, dated 2009)

Legend:
Assay type in all cases: in vivo
[1] = system: Cyperus serotinus Rottboel; test: Test for herbicidal effect against paddy field weeds (Test Example 1); conditions: examined 3 weeks after treatment
Experimental: (§1) Preparation of Formulation of the Active Compound
(§2) • Carrier: DMF 5 parts by weight • Emulsifier: Benzyloxy polyglycol ether 1 part by weight
(§3) A formulation of an active compound is obtained as an emulsifiable concentrate by mixing 1 part by weight of the active compound with the above-mentioned amount of the carrier and emulsifier. A prescribed amount of the formulation is diluted with water.
(§4) In a green house seeds or tubers of Scirpus juncoides Roxburgh, Monochoria vaginalis Presi, annual broad-leaved weeds (Lindemia procumbens Philcox, Rotala indica Koehne, Elatine triandra Schk, Ammannia multiflora Roxb., etc.), Cyperus serotinus Rottboel were inoculated in a 500 cm^2 pot filled with paddy field soil. Then water was poured to a depth of about 2-3 cm. Five days and 13 days after inoculation, a prescribed, diluted solution of the formulation of each active compound, prepared according to the aforementioned preparation method, was applied to the surface of water. After the treatment the water depth of 3 cm was maintained and the herbicidal effect was examined after 3 weeks from the treatment.
(§5) The herbicidal effect was rated 100% in the case of complete death and as 0% in the case of no herbicidal effect. In case of showing higher than 80% herbicidal effect, it is evaluated as practical as herbicide.

[2] = system: Monochoria vaginalis Presi; test: as above; conditions: examined 3 weeks after treatment
Experimental: as §1, §2, §3, §4, §5

[3] = system: Scirpus juncoides Roxburgh; test: as above; conditions: examined 3 weeks after treatment
Experimental: as §1, §2, §3, §4, §5

[4] = system: annual broad-leaved weeds; test: as above; conditions: examined 3 weeks after treatment
Experimental: as §1, §2, §3, §4, §5

[5] = system: Cyperus serotinus Rottboel; test: Test for residual effectiveness against paddy field weeds (Test Example 2); conditions: 60 g ai/ha; period of maintaining herbicidal effect of higher than 80%
Excerpt: (§6) In a green house a 1000 cm^2 pot was filled with paddy field soil and water was poured to a depth of about 2 to 3 cm. A prescribed, diluted solution of the above-mentioned Test Example 1, was applied to the surface of water. After the prescribed time after the treatment (just after treatment, 1 week, 2 weeks, 3 weeks, 4 weeks, 5 weeks, 6 weeks and 7 weeks after treatment), seeds or tubers of the weeds to be tested Scirpus juncoides Roxburgh, Monochoria vaginalis Presi, annual broad-leaved weeds (Lindernia procumbens Philcox, Rotala indica Koehne, Elatine triandra Schk, Ammannia multiflora Roxb., etc.), Cyperus serotinus Rottboel and Sagittaria pygmaea Miq. were inoculated. Three weeks after the inoculation each herbicidal effect was examined.
(§7) The evaluation of the residual effectiveness was shown as the period (number of weeks) of maintaining herbicidal effect of higher than 80%, after the evaluation of herbicidal effect had been conducted in the similar manner as the above-mentioned Test Example 1.

[6] = system: Monochoria vaginalis Presi; test: as above; conditions: 60 g ai/ha; period of maintaining herbicidal effect of higher than 80%
Excerpt: as §6, §7

[7] = system: Sagittaria pygmaea Miq.; test: as above; conditions: 60 g ai/ha; period of maintaining herbicidal effect of higher than 80%
Excerpt: as §6, §7

[8] = system: Scirpus juncoides Roxburgh; test: as above; conditions: 60 g ai/ha; period of maintaining herbicidal effect of higher than 80%
Excerpt: as §6, §7

[9] = system: annual broad-leaved weeds; test: as above; conditions: 60 g ai/ha; period of maintaining herbicidal effect of higher than 80%
Excerpt: as §6, §7

[10] = system: sulfonylurea resistant Elatine triandra Schk (collected in Kazo area, Saitama Pref.); test: Test for herbicidal effect against sulfonylurea resistant weeds (Test Example 3); conditions: applied at beginning of emergence, examined 3 weeks after treatment
Excerpt: (§8) In a green house seeds of Scirpus juncoides Roxburgh (collected in Iwamizawa area, Hokkaido), Lindernia procumbens Philcox (collected in Kazo area, Saitama Pref.), Lindernia procumbens Philcox (collected in Higashi-Hiroshima area, Hiroshima Pref.), Elatine triandra Schk (collected in Kazo area, Saitama Pref.), all of which were confirmed as sulfonylurea resistant, were inoculated in a 20 cm^2 cup filled with paddy field soil. Then water was poured to a depth of about 2 to 3 cm. At the beginning of emergence of each weed, a prescribed, diluted solution of the formulation of each active compound prepared in the same manner as the above-mentioned Test Example 1 was applied to the surface of water. After the treatment the water depth of 3 cm was maintained and the herbicidal effect was examined after 3 weeks from the treatment. The evaluation of the herbicidal effect was conducted in the same manner as the above-mentioned Test Example 1. In case of showing higher than 80% herbicidal effect, it is evaluated as practical as herbicide. In consideration of the possibility that the biological properties including herbicide resistance of the plants grown in different areas might be different, sulfonylurea resistant Lindernia procumbens Philcox collected in two different areas were used in the present tests. The study results with the compounds No. 1, 3, 11 and 17 and the comparative compound No. C-1 as specific examples are shown in the following Table 6.

[11] = system: sulfonylurea resistant Lindernia procumbens Philcox (collected in Higashi-Hiroshima area, Hiroshima Pref.); test: as above; conditions: applied at beginning of emergence, examined 3 weeks after treatment
Excerpt: as §8

[12] = system: sulfonylurea resistant Lindernia procumbens Philcox (collected in Kazo area, Saitama Pref.); test: as above; conditions: applied at beginning of emergence, examined 3 weeks after treatment
Excerpt: as §8

[13] = system: sulfonylurea resistant Scirpus juncoides Roxburgh (collected in Iwamizawa area, Hokkaido); test: as above; conditions: applied at beginning of emergence, examined 3 weeks after treatment
Excerpt: as §8

[14] = system: transplanted rice (var. Nipponbare); test: Test for phytotoxicity to transplanted rice (Test Example 4); conditions: 60 g ai/ha, application 5 days after transplanting, examined 2 weeks after treatment
Experimental: The phytotoxicity to transplanted rice was evaluated under the conditions with more shallow planting depths than usual depth of 2 cm, simulating the severe condition for herbicides to cause rice injury in the paddy. In a greenhouse 2 to 2.5 leaf-stage of rice (var. Nipponbare) was transplanted at three different depths, in a 1000 cm^2 pot filled with paddy field soil. Then water was poured to a depth of about 2 to about 3 cm. Five days after transplanting, a prescribed, diluted solution of the formulation of each active compound, prepared in the same manner as the above-mentioned Test Example 1, was applied to the surface of water. After the treatment the water depth of 3 cm was maintained and the rice injury was examined after 2 weeks from the treatment. The rice injury was rated 100% in the case of complete death and as 0% in the case of no injury. In case of showing less than 20% injury, it is evaluated as practical as rice herbicide.

[15] = 15 g ai/ha, application 5 days after inoculation
[16] = 15 g ai/ha, application 13 days after inoculation
[17] = 30 g ai/ha, application 5 days after inoculation
[18] = 30 g ai/ha, application 13 days after inoculation

Row | Structure (SMILES) | herbicidal effect Cyperus serotinus [1, 15] [%] | herbicidal effect Cyperus serotinus [1, 16] [%] | herbicidal effect Cyperus serotinus [1, 17] [%] | herbicidal effect Cyperus serotinus [1, 18] [%] | herbicidal effect Monochoria vaginalis [2, 15] [%] | herbicidal effect Monochoria vaginalis [2, 16] [%] | herbicidal effect Monochoria vaginalis [2, 17] [%] | herbicidal effect Monochoria vaginalis [2, 18] [%] | herbicidal effect Scirpus juncoides [3, 15] [%] | herbicidal effect Scirpus juncoides [3, 16] [%] | herbicidal effect Scirpus juncoides [3, 17] [%] | herbicidal effect Scirpus juncoides [3, 18] [%] | herbicidal effect broad-leaved weeds [4, 15] [%] | herbicidal effect broad-leaved weeds [4, 16] [%] | herbicidal effect broad-leaved weeds [4, 17] [%] | herbicidal effect broad-leaved weeds [4, 18] [%] | period showing sufficient residual herbicidal effectiveness Cyperus serotinus [5] [week] | period showing sufficient residual herbicidal effectiveness Monochoria vaginalis [6] [week] | period showing sufficient residual herbicidal effectiveness Sagittaria pygmaea [7] [week] | period showing sufficient residual herbicidal effectiveness Scirpus juncoides [8] [week] | further results
1 | COc1cc(OC)nc(C(O)c2cccc(F)c2NS(=O)(=O)C(F)F)n1 (stereo not drawn) [Compound 1, 2-fluoro-6-[(4,6-dimethoxypyrimidin-2-yl)hydroxymethyl]-N-difluoromethanesulfonanilide] | 100 | 95 | 100 | 100 | 100 | 100 | 100 | 100 | 100 | 100 | 100 | 100 | 100 | 95 | 100 | 100 | 3 | 4 | 3 | 6 | period showing sufficient residual herbicidal effectiveness broad-leaved weeds [9]: 3 week; herbicidal effect against sulfonylurea resistant weeds Elatine triandra (collected in Kazo area, Saitama Pref.) ([10]; 30 g ai/ha): 100%; herbicidal effect against sulfonylurea resistant weeds Elatine triandra (collected in Kazo area, Saitama Pref.) ([10]; 60 g ai/ha): 100%; herbicidal effect against sulfonylurea resistant weeds Lindernia procumbens (collected in Higashi-Hiroshima area, Hiroshima Pref.) ([11]; 30 g ai/ha): 100%; herbicidal effect against sulfonylurea resistant weeds Lindernia procumbens (collected in Higashi-Hiroshima area, Hiroshima Pref.) ([11]; 60 g ai/ha): 100%; herbicidal effect against sulfonylurea resistant weeds Lindernia procumbens (collected in Kazo area, Saitama Pref.) ([12]; 30 g ai/ha): 95%; herbicidal effect against sulfonylurea resistant weeds Lindernia procumbens (collected in Kazo area, Saitama Pref.) ([12]; 60 g ai/ha): 100%; herbicidal effect against sulfonylurea resistant weeds Scirpus juncoides (collected in Iwamizawa area, Hokkaido) ([13]; 30 g ai/ha): 100%; herbicidal effect against sulfonylurea resistant weeds Scirpus juncoides (collected in Iwamizawa area, Hokkaido) ([13]; 60 g ai/ha): 100%
2 | COc1cc(OC)nc(C(O)c2cccc(F)c2NS(=O)(=O)C(F)(F)F)n1 (stereo not drawn) [Compound C-1, reference compound] | 70 | 60 | 80 | 60 | 60 | 50 | 80 | 60 | 70 | 60 | 80 | 70 | 50 | 40 | 80 | 60 | 1 | <1 | 1 | 2 | period showing sufficient residual herbicidal effectiveness broad-leaved weeds [9]: <1 week; herbicidal effect against sulfonylurea resistant weeds Elatine triandra (collected in Kazo area, Saitama Pref.) ([10]; 30 g ai/ha): 60%; herbicidal effect against sulfonylurea resistant weeds Elatine triandra (collected in Kazo area, Saitama Pref.) ([10]; 60 g ai/ha): 70%; herbicidal effect against sulfonylurea resistant weeds Lindernia procumbens (collected in Higashi-Hiroshima area, Hiroshima Pref.) ([11]; 30 g ai/ha): 50%; herbicidal effect against sulfonylurea resistant weeds Lindernia procumbens (collected in Higashi-Hiroshima area, Hiroshima Pref.) ([11]; 60 g ai/ha): 80%; herbicidal effect against sulfonylurea resistant weeds Lindernia procumbens (collected in Kazo area, Saitama Pref.) ([12]; 30 g ai/ha): 40%; herbicidal effect against sulfonylurea resistant weeds Lindernia procumbens (collected in Kazo area, Saitama Pref.) ([12]; 60 g ai/ha): 60%; herbicidal effect against sulfonylurea resistant weeds Scirpus juncoides (collected in Iwamizawa area, Hokkaido) ([13]; 30 g ai/ha): 60%; herbicidal effect against sulfonylurea resistant weeds Scirpus juncoides (collected in Iwamizawa area, Hokkaido) ([13]; 60 g ai/ha): 70%; phytotoxicity to transplanted rice depth 0.5 cm ([14]; planting depth 0.5 cm): 35%; phytotoxicity to transplanted rice depth 2 cm ([14]; planting depth 2 cm): 20%
